Assay results published in article PMC7504387, “Antimicrobial and Amyloidogenic Activity of Peptides Synthesized on the Basis of the Ribosomal S1 Protein from Thermus Thermophilus” (International Journal of Molecular Sciences, 2020).
Values after ≈ are worked out from the molar mass of the structure shown. Where a SMILES comes first, the peptide text is derived from it.

Assays:
[1] = Thioflavine T fluorescence assay of peptide aggregation; format: physicochemical; details: peptide alone, ThT 0.2 mM, 37 °C
Protocol: Fibrils growth was monitored by thioflavine T (ThT) (Sigma-Aldrich, St. Louis, MO, USA) fluorescence. The kinetics of aggregation of peptides was studied using the method of fluorescence spectroscopy. Each kinetics graph was plotted based on the average of several results measured at different time intervals. To facilitate dissolution, all the samples of peptides were pre-dissolved in 100% DMSO, then buffers 50 mM Tris-HCl, pH 7.5, 150 mM NaCl or 20% acetic acid pH 2.0, 150 mM NaCl were added (1% final concentration DMSO) and filtered through […] membranes to remove small aggregates. ThT is the most commonly used fluorescent dye for the following amyloid formation semi-quantitatively in vitro. Free ThT has excitation and emission maxima at ∼350 and ∼450 nm, respectively (after binding to fibrils, the excitation and emission λmax change to ∼450 and ∼482–485 nm, respectively). A stock solution of ThT was prepared at a concentration of 20 mM in 50 mM Tris-HCl, pH 7.5, 150 mM NaCl or 20% acetic acid pH 2.0, 150 mM NaCl, respectively and stored at 4 °C protected from light. The final concentration of ThT was 0.2 mM, and each peptide was 0.2 mM. ThT was present in the sample during the fibril formation reaction. Measurements of ThT fluorescence were performed on a Cary Eclipse fluorescence spectrophotometer (Varian, Mulgrave, Australia) in quartz cells 3 × 3 mm at 37 °C.

[2] = tested on: ribosomal S1 protein from T. thermophilus; experiment: Electron microscopy, coaggregation of peptide with S1 protein
Protocol: (§1) The presence of amyloid fibrils in the test samples was monitored by transmission electron microscopy (TEM). End-point solutions of peptides were collected and the samples were dissolved in the same solution to 0.2 mg/mL before studying with electron microscopy. A formvar-coated copper grid 400 mesh (Electron Microscopy Sciences, Hatfield, PA, USA) was placed on a 10 μL sample. After 5 min absorption, the grids with the preparation were negatively stained for 1.5–2.0 min with 1% (weight/volume) aqueous solution of uranyl acetate. The excess of the staining agent was removed with filter paper. The preparations were analyzed using a JEM-100C (Jeol, Tokyo, Japan) transmission electron microscope at the accelerating voltage of 80 kV. Images were recorded on the Kodak electron image film (SO-163) at nominal magnification of 40,000–60,000.

[3] = tested on: T. thermophilus cells; experiment: Electron microscopy of intact and peptide-treated T. thermophilus cells; format: cell-based
Protocol: Along with the spectrophotometric method for determining the antimicrobial activity of peptides, the viability of cells was evaluated using electron microscopy. […] At the given peptide concentration, cells with a typical morphology and flagella were often found. Many protein aggregates were also observed. The absence of an antimicrobial effect with an increase in the concentration of the peptide to 1000 μg/mL, consistent with the spectrophotometry data of the antimicrobial activity of peptides (Figure 3).
as §1

[4] = Transmission electron microscopy of peptide preparations; format: physicochemical; details: peptide alone, negative staining, TEM
Protocol: as §1

[5] = tested on: T. thermophilus cell culture; format: cell-based
Protocol: UV-Vis spectra were recorded using a spectrophotometr SF-102 (Akvilon, Moscow, Russia). At the end of the incubation, the density of the medium was estimated by spectrophotometry in a cuvette 10 mm with a total volume of 100 μL. The cuvettes were filled with the peptide water solutions and spectra were collected, using a wavelength from 600 nm. Biological activity of peptides was evaluated by their minimum concentration, which that may inhibit the growth of T. thermophilus bacteria culture. Biological activity of peptides was counted by using the following equation: (1) E=1−A (sample with peptide)/A (sample without peptide), where E is a biological activity of peptides, A is an optical absorption after 24 h incubation with and without peptide.
To construct a dose-effect curve and estimate the quantitative parameters of the curves, the statistical environment R and the drc package were used. The choice of model for describing the functional dependence was determined by several parameters: the logarithm of the maximum value of the likelihood function (logLik), the Akaike information criterion (IC), and the residual variance (Res var).
The algorithm for evaluating antimicrobial activity includes the study of this process and the dose–response relationship. The reaction of a biological object determines a quantitative assessment of the antimicrobial effect, depending not only on the concentration of the peptide, but also on the time of its action. Almost any impact begins with a certain threshold. An important final result of the experiment is the assessment of this threshold—the minimum inhibitory concentration (MIC) at which peptide influence is observed.

## CC[C@H](C)[C@H](NC(=O)[C@H](CCC(=O)O)NC(=O)[C@@H](NC(=O)[C@H](Cc1ccccc1)NC(=O)[C@@H](NC(=O)CNC(=O)[C@H](Cc1ccccc1)NC(=O)[C@H](CC(=O)O)NC(=O)[C@@H](NC(=O)[C@@H](NC(=O)CNC(=O)CN(C)C(=O)CNC(=O)CNC(=O)[C@H](CCCNC(=N)N)NC(=O)[C@H](CCCNC(=N)N)NC(=O)[C@H](CCCNC(=N)N)NC(=O)[C@H](CCC(N)=O)NC(=O)[C@H](CCCNC(=N)N)NC(=O)[C@H](CCCNC(=N)N)NC(=O)[C@H](CCCCN)NC(=O)[C@H](CCCCN)NC(=O)[C@@H](N)CCCNC(=N)N)C(C)C)[C@@H](C)O)C(C)C)C(C)C)C(=O)O [R23I] (HELM PEPTIDE1{R.K.K.R.R.Q.R.R.R.G.G.[Sar].G.V.T.D.F.G.V.F.V.E.I}$$$$V2.0; N-terminus and C-terminus assumed)
[1]
  amyloids in peptide preparation according to ThT fluorescence: absence of R23I amyloids
[2]; peptide:S1 protein ratio 1:1
  morphology of peptide/S1 protein mixture by electron microscopy: both the protein aggregates and fibrils were observed
[2]; peptide:S1 protein ratio 5:1 (S1:peptide = 1:5)
  morphology of peptide/S1 protein mixture by electron microscopy: both the protein aggregates and fibrils were observed
[3]; peptide 50 μg/mL
  cell morphology by electron microscopy: whole cells were practically absent
[3]; peptide 100 μg/mL
  cell morphology by electron microscopy: the number of cells decreased
[3]; peptide 1000 μg/mL
  cell morphology by electron microscopy: did not lead to the morphological changes compared with the control
[4]
  aggregate/fibril morphology according to electron microscopy: aggregates of different sizes and complexes of aggregates are present
[5]; 50 μg/mL in medium, OD 600 nm versus sampling time, DMSO control reached 0.8
  change of optical density of T. thermophilus culture over time: no increase in the optical density
[5]; T. thermophilus culture, optical absorption at 600 nm after 24 h incubation, 5 repeats for R23I, 2 for R23T and V10I
  minimal inhibitory concentration (MIC): 50 µg/mL (≈ 18.6 µM)
[5]; T. thermophilus culture, additional concentrations 0.5-250 μg/mL tested
  concentration at which a pronounced antibacterial effect is observed (no activity below): 40 µg/mL
[5]; culture medium, OD 600 nm
  concentration leading to formation of aggregates in solution and increase in optical density: ≥ 500 µg/mL
